Reference: patent US12568998B2, “Flavouring composition with balanced taste profile” (SYMRISE AG, priority 2021, dated 2026)
Entries after “also recorded” stand apart in the source; their conditions may differ.

Experiments:
[1] = Sensory descriptive analysis of ice tea prototypes, sweetness factor (Example 1); settings: HC 10 ppm and/or HT 3 ppm
[2] = Sensory profiling of ice tea preparation, HT/HC ratio 1:3.33 (Example 2); settings: tea base, 4 wt.-% HFCS, 0.10 wt.-% citric acid, HT 3 ppm and/or HC 10 ppm; for Acidity / Balance / Bitter / Complexity / Fruity-Juicy / Long lasting / Off-Notes / Onset Sweetness / Overall Sweetness / Syrupy / Tea: line scale (10 cm)
Description: In order to further validate the insights derived from Example 1, the interaction and main effects of HT and HC are to be shown in a setup in which a drinkable preparation with a tea base, 0.05 wt.-% lemon flavor, 4 wt.-% high fructose corn syrup, 0.1 wt.-% citric acid and 0.03 wt.-% trisodium citrate was prepared. That preparation was divided into four samples by varying the dosage of HC and HT resulting in one sample containing no HC and no HT (control), containing 10 ppm HC and no HT (HC main effect), containing no HC and 3 ppm HT (HT main effect) and, respectively, containing 10 ppm HC and 3 ppm HT (HT×HC interaction effect). […] The final preparations were profiled by an expert panel consisting of ten educated panelists (two measurements). Different sensorial attributes (ice tea language with focus on sweetness) were assessed and scored on an unstructured line scale (10 cm) for its perceived intensity. The results of the testing are shown below in Table 2 as well as in FIG. 1 and FIG. 2.

[3] = Dosing tests with an excess of hesperetin, sensory ranking (Example 3)
Description: A drinkable preparation with 7 wt.-% sucrose and 0.15 wt.-% citric acid was prepared. This preparation was used as a base composition for dosing tests with different dosing regimens of hesperetin dihydrochalcone and hesperetin. The different samples were evaluated by an expert panel consisting of five educated panelists and ranked on a scale from 0 to 9. The results of the testing are shown below in Table 3 as well as in FIG. 3.

[4] = Sensory profiling of ice tea preparation, HT/HC ratios 1:1 and 1:6 (Example 4); settings: tea base, 5 wt.-% HFCS, 0.18 wt.-% citric acid, line scale (10 cm)
Description: In order to further validate the insights derived from Example 1 and 2, the interaction and main effects of HT and HC are to be shown in a setup in which a drinkable preparation with a tea base, 0.05 wt.-% lemon flavor, 5 wt.-% high fructose corn syrup, 0.18 wt.-% citric acid and 0.03 wt.-% trisodium citrate was prepared. That preparation was divided into four samples by varying the dosage of HT and HC resulting in one sample containing no HT and no HC (control), containing 5 or 3 ppm HT and no HC (HT main effect), containing no HT and 5 or 18 ppm HC (HC main effect) and, respectively, containing 5 or 3 ppm HT and or 18 ppm HC (HT×HC interaction effect). […] The final preparations were profiled by an expert panel consisting of seven educated panelists (two measurements). Different sensorial attributes (ice tea language with focus on sweetness) were assessed and scored on an unstructured line scale (10 cm) for its perceived intensity. The results of the testing are shown below in Table 4 and 5 as well as in FIG. 4 to FIG. 7.

[5] = J. Chem. Senses 1979, 4(1), 35-47; cited from earlier work
[6] = Acesulfame K Ice tea Base, 60 ppm
[7] = HFCS Ice tea Base, 2 wt. % High Fructose corn sirup
[8] = Invert Sugar Syrup Ice tea Base, 2 wt. % invert sugar syrup
[9] = Reb A Ice tea Base, 60 ppm rebaudioside A
[10] = Reb A/Reb D Ice tea Base, 60 ppm rebaudioside A/60 ppm rebaudioside D
[11] = Reb A/Reb M Ice tea Base, 60 ppm rebaudioside A/45 ppm rebaudioside M
[12] = Reb M/Reb D Ice tea Base, 45 ppm rebaudioside M/60 ppm rebaudioside D
[13] = Sucralose Ice tea Base, 100 ppm sucralose
[14] = Sugar Free Ice tea Base, no added sugar/sweetener

COc1ccc([C@@H]2CC(=O)c3c(O)cc(O)cc3O2)cc1O [HT, hesperetin]
ANOVA (sweetness factor) [1, 6]: −2.4 | ANOVA (sweetness factor) [1, 7]: −3.2 | ANOVA (sweetness factor) [1, 8]: −3.3 | ANOVA (sweetness factor) [1, 9]: −2.8 | ANOVA (sweetness factor) [1, 10]: −2.4 | ANOVA (sweetness factor) [1, 11]: −2.3 | ANOVA (sweetness factor) [1, 12]: −2.6 | ANOVA (sweetness factor) [1, 13]: −3.1 | ANOVA (sweetness factor) [1, 14]: −3.6 | Acidity [2]: 3.71 | Balance [2]: 3.20 | Bitter [2]: 2.93 | Complexity [2]: 3.06 | Fruity-Juicy [2]: 3.60 | Long lasting [2]: 2.32 | Off-Notes [2]: 1.85 | Onset Sweetness [2]: 3.14 | Overall Sweetness [2]: 3.39 | Syrupy [2]: 2.67 | Tea [2]: 4.30 | hesperetin concentration exhibiting off-tastes in the preparation [3]: more than 30 ppm | Acidity ([4]; HT 3 ppm and/or HC 18 ppm): 4.11 | Balance ([4]; HT 3 ppm and/or HC 18 ppm): 3.24 | Bitter ([4]; HT 3 ppm and/or HC 18 ppm): 2.21 | Complexity ([4]; HT 3 ppm and/or HC 18 ppm): 3.99 | Fruity-Juicy ([4]; HT 3 ppm and/or HC 18 ppm): 4.19 | Long lasting ([4]; HT 3 ppm and/or HC 18 ppm): 2.61 | Off-Notes ([4]; HT 3 ppm and/or HC 18 ppm): 0.77 | Onset Sweetness ([4]; HT 3 ppm and/or HC 18 ppm): 4.22 | Overall Sweetness ([4]; HT 3 ppm and/or HC 18 ppm): 4.53 | Syrupy ([4]; HT 3 ppm and/or HC 18 ppm): 3.72 | Tea ([4]; HT 3 ppm and/or HC 18 ppm): 4.39 | Acidity ([4]; HT 5 ppm and/or HC 5 ppm): 4.06 | Balance ([4]; HT 5 ppm and/or HC 5 ppm): 3.94 | Bitter ([4]; HT 5 ppm and/or HC 5 ppm): 1.87 | Complexity ([4]; HT 5 ppm and/or HC 5 ppm): 3.87 | Fruity-Juicy ([4]; HT 5 ppm and/or HC 5 ppm): 4.32 | Long lasting ([4]; HT 5 ppm and/or HC 5 ppm): 2.79 | Off-Notes ([4]; HT 5 ppm and/or HC 5 ppm): 0.58 | Onset Sweetness ([4]; HT 5 ppm and/or HC 5 ppm): 3.89 | Overall Sweetness ([4]; HT 5 ppm and/or HC 5 ppm): 4.07 | Syrupy ([4]; HT 5 ppm and/or HC 5 ppm): 3.59 | Tea ([4]; HT 5 ppm and/or HC 5 ppm): 4.16

COc1ccc(CCC(=O)c2ccccc2O)cc1O [dihydrochalcone (1)]
taste [5]: intensively sweet tasting

COc1ccc(CCC(=O)c2c(O)cc(O)cc2O)cc1O [HC, hesperetin dihydrochalcone]
ANOVA (sweetness factor) [1, 6]: −0.1 | ANOVA (sweetness factor) [1, 7]: −0.9 | ANOVA (sweetness factor) [1, 8]: −1 | ANOVA (sweetness factor) [1, 9]: −0.5 | ANOVA (sweetness factor) [1, 10]: −0.1 | ANOVA (sweetness factor) [1, 11]: 0 | ANOVA (sweetness factor) [1, 12]: −0.3 | ANOVA (sweetness factor) [1, 13]: −0.8 | ANOVA (sweetness factor) [1, 14]: −1.3 | Remarks [2]: lingering,; also recorded: sweetener | Acidity [2]: 3.22 | Balance [2]: 3.50 | Bitter [2]: 2.58 | Complexity [2]: 3.62 | Fruity-Juicy [2]: 3.88 | Long lasting [2]: 3.90 | Off-Notes [2]: 2.25 | Onset Sweetness [2]: 4.39 | Overall Sweetness [2]: 4.80 | Syrupy [2]: 3.70 | Tea [2]: 4.08 | Acidity ([4]; HT 3 ppm and/or HC 18 ppm): 3.12 | Balance ([4]; HT 3 ppm and/or HC 18 ppm): 3.66 | Bitter ([4]; HT 3 ppm and/or HC 18 ppm): 1.94 | Complexity ([4]; HT 3 ppm and/or HC 18 ppm): 4.58 | Fruity-Juicy ([4]; HT 3 ppm and/or HC 18 ppm): 4.27 | Long lasting ([4]; HT 3 ppm and/or HC 18 ppm): 4.20 | Off-Notes ([4]; HT 3 ppm and/or HC 18 ppm): 1.01 | Onset Sweetness ([4]; HT 3 ppm and/or HC 18 ppm): 4.99 | Overall Sweetness ([4]; HT 3 ppm and/or HC 18 ppm): 5.60 | Syrupy ([4]; HT 3 ppm and/or HC 18 ppm): 4.32 | Tea ([4]; HT 3 ppm and/or HC 18 ppm): 4.01 | Acidity ([4]; HT 5 ppm and/or HC 5 ppm): 3.46 | Balance ([4]; HT 5 ppm and/or HC 5 ppm): 3.68 | Bitter ([4]; HT 5 ppm and/or HC 5 ppm): 1.93 | Complexity ([4]; HT 5 ppm and/or HC 5 ppm): 3.90 | Fruity-Juicy ([4]; HT 5 ppm and/or HC 5 ppm): 4.68 | Long lasting ([4]; HT 5 ppm and/or HC 5 ppm): 3.11 | Off-Notes ([4]; HT 5 ppm and/or HC 5 ppm): 0.70 | Onset Sweetness ([4]; HT 5 ppm and/or HC 5 ppm): 4.19 | Overall Sweetness ([4]; HT 5 ppm and/or HC 5 ppm): 4.46 | Syrupy ([4]; HT 5 ppm and/or HC 5 ppm): 3.96 | Tea ([4]; HT 5 ppm and/or HC 5 ppm): 4.11

COc1ccc(CCC(=O)c2c(O)cccc2O)cc1O [dihydrochalcone (2)]
taste [5]: tasteless
